From US7772252B2, “Heterocyclic substituted carbonyl derivatives and their use as dopamine D3 receptor ligands” (Aventis Pharmaceuticals Inc., priority 2001, dated 2010) come the findings set out here.

T1 sequence (P35462 whole entry): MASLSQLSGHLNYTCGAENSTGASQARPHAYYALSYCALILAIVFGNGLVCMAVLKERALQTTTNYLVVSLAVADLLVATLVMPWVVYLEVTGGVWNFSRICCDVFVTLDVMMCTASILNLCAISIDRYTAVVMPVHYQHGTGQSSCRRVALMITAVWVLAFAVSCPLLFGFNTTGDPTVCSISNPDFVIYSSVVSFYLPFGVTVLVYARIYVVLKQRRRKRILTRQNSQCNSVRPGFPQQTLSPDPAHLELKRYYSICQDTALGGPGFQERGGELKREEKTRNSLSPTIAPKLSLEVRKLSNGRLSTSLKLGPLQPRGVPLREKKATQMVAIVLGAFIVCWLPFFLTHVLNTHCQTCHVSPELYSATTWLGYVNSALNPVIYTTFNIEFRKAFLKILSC

One experiment has as its target T1, cloned human dopamine D3 receptors (Homo sapiens, UniProt P35462).
T1 construct: expressed in transfected cells; membrane homogenate
Nature of the experiment: [N-Methyl-3H]Spiroperidol binding to cloned human dopamine D3 receptors. As to conditions: Table 2; D3 receptor binding; read-out: d3Ki. An outline of the steps:
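Radioligand displacement with [N-methyl-3H]spiroperidol was run on membranes from a high-expressing CHO clone carrying human D3. Membranes were prepared in 10% DMSO and stored at −80° C.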
`O=C(CCCN1CCN(c2csc3cc(C(F)(F)F)ccc23)CC1)N1CCC(O)CC1` [compound 826812]: the Ki is 7.29 nM. Still for that read-out and setting: to `CC1CCCCN1C(=O)CCCN1CCN(c2csc3cc(C(F)(F)F)ccc23)CC1` (stereo not drawn) [compound 826813] belongs 5.16 nM; to `CC1CCN(C(=O)CCCN2CCN(c3csc4cc(C(F)(F)F)ccc34)CC2)CC1` [compound 826814], 10.3 nM; to `CC1CCCN(C(=O)CCCN2CCN(c3csc4cc(C(F)(F)F)ccc34)CC2)C1` (stereo not drawn) [compound 826815], 31.7 nM.

The experiment is the same for the next values; noted with them: read-out: d3Ki.
For `CC1CCCC(NC(=O)CCCN2CCN(c3csc4cc(C(F)(F)F)ccc34)CC2)C1` (racemic) [compound 826807], the Ki amounted to 43 nM. For the molecule `O=C(CCCN1CCN(c2csc3cc(F)ccc23)CC1)NC1CCCC1` (racemic) [compound 826860], the Ki amounted to 3.48 nM. On to `CN(C(=O)CCCN1CCN(c2csc3cc(C(F)(F)F)ccc23)CC1)C1CCCCC1` [compound 826808], for which the Ki turned out to be 17.4 nM. Same read-out and setting: for `O=C(CCCN1CCN(c2csc3cc(C(F)(F)F)ccc23)CC1)N(CCO)C1CCCCC1` [compound 826810] the value was 86.7 nM; for `CCOC(=O)C1CCN(C(=O)CCCN2CCN(c3csc4cc(C(F)(F)F)ccc34)CC2)CC1` [compound 826811], 40.4 nM.

Take `O=C(CCCN1CCN(c2csc3cc(C(F)(F)F)ccc23)CC1)N1CCC(N2CCCC2)CC1` [compound 826816]: the Ki turned out to be 26.3 nM. For `CC1CC(C)CN(C(=O)CCCN2CCN(c3csc4cc(C(F)(F)F)ccc34)CC2)C1` (stereo not drawn) [compound 826818], the Ki was 29.3 nM. Regarding `O=C(CCCN1CCN(c2csc3cc(C(F)(F)F)ccc23)CC1)N1CCCC1` [compound 826819], the Ki is 11.6 nM. Take `O=C(CCCN1CCN(c2csc3cc(C(F)(F)F)ccc23)CC1)NC1CCCC1` [compound 826820]: the Ki was 52.8 nM. Turning to `O=C(CCCN1CCN(c2csc3cc(C(F)(F)F)ccc23)CC1)NC1CCCCC1` [compound 826821], the Ki is 70.1 nM.

In the case of `CC1CCCN1C(=O)CCCN1CCN(c2csc3cc(C(F)(F)F)ccc23)CC1` (stereo not drawn) [compound 826822], the Ki turned out to be 2.79 nM.

Consider `CN(C)C1CCN(C(=O)CCCN2CCN(c3csc4cc(C(F)(F)F)ccc34)CC2)C1` (stereo not drawn) [compound 826823], for which the Ki worked out at 19 nM. Regarding `C[C@H]1CC[C@H](NC(=O)CCCN2CCN(c3csc4cc(F)ccc34)CC2)CC1` [compound 826844], the Ki was 0.591 nM.

With `CCOC(=O)[C@H]1CC[C@H](NC(=O)CCCN2CCN(c3csc4cc(F)ccc34)CC2)CC1` [compound 826845], the Ki turned out to be 4.42 nM. Turning to `CC[C@H]1CC[C@H](NC(=O)CCCN2CCN(c3csc4cc(F)ccc34)CC2)CC1` [compound 826846], the Ki amounted to 17.6 nM. Still for that read-out and setting: to `CC1CCCC(NC(=O)CCCN2CCN(c3csc4cc(F)ccc34)CC2)C1` (stereo not drawn) [compound 826847] belongs 1.01 nM.

Turning to `CN(C(=O)CCCN1CCN(c2csc3cc(F)ccc23)CC1)C1CCCCC1` [compound 826848], the Ki came out at 4.35 nM. Regarding `CCN(C(=O)CCCN1CCN(c2csc3cc(F)ccc23)CC1)C1CCCCC1` [compound 826849], the Ki was 54.2 nM.

For `O=C(CCCN1CCN(c2csc3cc(F)ccc23)CC1)N(CCO)C1CCCCC1` [compound 826850], the Ki worked out at 18.8 nM.

With `CCOC(=O)C1CCN(C(=O)CCCN2CCN(c3csc4cc(F)ccc34)CC2)CC1` [compound 826851], the Ki is 2.77 nM. Take `O=C(CCCN1CCN(c2csc3cc(F)ccc23)CC1)N1CCC(O)CC1` [compound 826852]: the Ki came to 3.54 nM. For `CC1CCCCN1C(=O)CCCN1CCN(c2csc3cc(F)ccc23)CC1` (stereo not drawn) [compound 826853], the Ki is 0.128 nM.

For the molecule `CC1CCN(C(=O)CCCN2CCN(c3csc4cc(F)ccc34)CC2)CC1` [compound 826854], the Ki was 0.116 nM. With `CC1CCCN(C(=O)CCCN2CCN(c3csc4cc(F)ccc34)CC2)C1` (stereo not drawn) [compound 826855], the Ki came to 0.58 nM. Still for that read-out and setting: for `O=C(CCCN1CCN(c2csc3cc(F)ccc23)CC1)N1CCC(N2CCCC2)CC1` [compound 826856] the value was 1.8 nM; for `CC1CC(C)CN(C(=O)CCCN2CCN(c3csc4cc(F)ccc34)CC2)C1` (stereo not drawn) [compound 826858], 3.71 nM. On the same count and under the same terms, to `O=C(CCCN1CCN(c2csc3cc(F)ccc23)CC1)N1CCCC1` [compound 826859] belongs 3.53 nM; to `O=C(CCCN1CCN(c2csc3cc(F)ccc23)CC1)NC1CCCCC1` [compound 826861], 2.89 nM.

Turning to `CC1CCCN1C(=O)CCCN1CCN(c2csc3cc(F)ccc23)CC1` (stereo not drawn) [compound 826862], the Ki turned out to be 0.951 nM.
